Earlier results on one compound are cited in patent US20150174160A1, “METHODS FOR TREATING, DIAGNOSING AND/OR MONITORING PROGRESSION OF OXO ASSOCIATED STATES” (priority 2012, published 2015).

The conditions of the data set: for 2 years in humans.

As to `O=C(O)CCCCC1CCSS1` (stereo not drawn) [ALA, alpha-lipoic acid], the safe dose entry was “up to 2 grams daily”.
